Source: the supplement of paper PMC10721915
± gives the standard deviation of the averaged measurements.

Compound: COc1ccc([C@@H](O)c2cc(-c3ncnc4cc(N5CCOCC5)ccc34)c(F)cc2Cl)nn1 [peposertib]
Experiment: relative cell growth vs untreated control (GI, NCI-DTP normalisation with time-zero) (fraction of control growth); higher = more growth / less inhibition
Details: treatment time: 120 h
Protocol: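 Cancer cell lines were treated with peposertib (DNA-PK inhibitor) combined with gamma ionizing radiation (0, 2, 3 or 6 Gy) for 120 h, starting 48 h after seeding. Read-out was sulforhodamine B total-protein staining, normalised to untreated control and time-zero wells (NCI-DTP GI convention).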

[1] = peposertib concentration 0.00488 µM, gamma irradiation dose (Gy): 0
[2] = peposertib concentration 0.0195 µM, gamma irradiation dose (Gy): 0
[3] = peposertib concentration 0.0781 µM, gamma irradiation dose (Gy): 0
[4] = peposertib concentration 0.313 µM, gamma irradiation dose (Gy): 0
[5] = peposertib concentration 1.25 µM, gamma irradiation dose (Gy): 0
[6] = peposertib concentration 5 µM, gamma irradiation dose (Gy): 0
[7] = peposertib concentration 0.00488 µM, gamma irradiation dose (Gy): 3
[8] = peposertib concentration 0.0195 µM, gamma irradiation dose (Gy): 3
[9] = peposertib concentration 0.0781 µM, gamma irradiation dose (Gy): 3
[10] = peposertib concentration 0.313 µM, gamma irradiation dose (Gy): 3
[11] = peposertib concentration 1.25 µM, gamma irradiation dose (Gy): 3
[12] = peposertib concentration 5 µM, gamma irradiation dose (Gy): 3

Test System | relative cell growth [1] | relative cell growth [2] | relative cell growth [3] | relative cell growth [4] | relative cell growth [5] | relative cell growth [6] | relative cell growth [7] | relative cell growth [8] | relative cell growth [9] | relative cell growth [10] | relative cell growth [11] | relative cell growth [12]
A204 | 1.06 | 1.01 | 0.892 | 0.616 | 0.298 | 0.0711 | – | – | – | – | – | –
A549 | 1.031 ± 0.01 | 1.02 ± 0.014 | 0.966 ± 0.019 | 0.782 ± 0.071 | 0.442 ± 0.079 | 0.113 ± 0.013 | 0.766 | 0.613 | 0.256 | 0.0863 | 0.0255 | 0.0147
A2780 | 1.03 | 1.04 | 1.02 | 0.999 | 0.858 | 0.156 | – | – | – | – | – | –
ASPC1 | 1.1 | 0.966 | 1 | 0.891 | 0.67 | 0.22 | – | – | – | – | – | –
BXPC3 | 0.935 | 0.946 | 0.903 | 0.789 | 0.437 | 0.137 | – | – | – | – | – | –
CACO2 | 0.994 ± 0.066 | 0.959 ± 0.018 | 0.92 ± 0.033 | 0.85 ± 0.0095 | 0.644 ± 0.03 | 0.238 ± 0.01 | 0.722 | 0.713 | 0.595 | 0.322 | 0.195 | 0.098
COLO205 | 0.984 ± 0.071 | 0.996 ± 0.039 | 1.01 ± 0.044 | 0.969 ± 0.029 | 0.7949 ± 0.007 | 0.351 ± 0.04 | 0.413 | 0.367 | 0.203 | 0.0736 | 0.0589 | 0.0686
DLD1 | 1.01 ± 0.015 | 0.997 ± 0.014 | 1 ± 0.042 | 0.959 ± 0.033 | 0.842 ± 0.09 | 0.445 ± 0.091 | 0.55 | 0.518 | 0.389 | 0.137 | 0.0235 | 0.00897
DU145 | 0.999 | 0.996 | 0.96 | 0.874 | 0.618 | 0.287 | – | – | – | – | – | –
EFO21 | 1.05 | 1.04 | 0.909 | 0.667 | 0.352 | 0.141 | – | – | – | – | – | –
EJ28 | 1.05 | 1.02 | 1.02 | 0.945 | 0.824 | 0.554 | – | – | – | – | – | –
HCT15 | 0.998 ± 0.048 | 0.896 ± 0.056 | 1.002 ± 0.0063 | 0.964 ± 0.028 | 0.792 ± 0.062 | 0.301 ± 0.074 | 0.555 | 0.482 | 0.298 | 0.147 | 0.0634 | 0.0278
HEPG2 | 0.956 | 0.977 | 0.977 | 0.91 | 0.603 | 0.211 | – | – | – | – | – | –
HL60 | 0.998 | 0.975 | 0.929 | 0.808 | 0.526 | 0.238 | – | – | – | – | – | –
HS578T | 1.01 | 1.01 | 1.02 | 0.947 | 0.581 | 0.182 | – | – | – | – | – | –
HS729 | 1.05 | 1.06 | 1.02 | 0.867 | 0.716 | 0.422 | – | – | – | – | – | –
HT29 | 0.978 ± 0.029 | 0.9825 ± 0.0091 | 0.974 ± 0.023 | 0.906 ± 0.03 | 0.658 ± 0.021 | 0.252 ± 0.0096 | 0.885 | 0.857 | 0.642 | 0.152 | 0.0553 | 0.0433
HT1080 | 1.08 | 1.09 | 1.08 | 1.11 | 1.11 | 1 | – | – | – | – | – | –

Test System | relative cell growth [1] | relative cell growth [2] | relative cell growth [3] | relative cell growth [4] | relative cell growth [5] | relative cell growth [6] | relative cell growth [7] | relative cell growth [8] | relative cell growth [9] | relative cell growth [10] | relative cell growth [11] | relative cell growth [12]
IGROV1 | 1.02 | 1.02 | 0.965 | 0.789 | 0.22 | -0.0182 | – | – | – | – | – | –
J82 | 1.02 | 1.03 | 0.991 | 0.876 | 0.64 | 0.377 | – | – | – | – | – | –
JIMT1 | 0.999 | 1.01 | 0.999 | 0.906 | 0.561 | 0.232 | – | – | – | – | – | –
KASUMI1 | 0.984 | 0.968 | 0.859 | 0.577 | 0.181 | -0.0751 | – | – | – | – | – | –
L363 | 0.996 | 1 | 0.98 | 0.813 | 0.39 | 0.0471 | – | – | – | – | – | –
LOVO | 1.01 ± 0.055 | 0.946 ± 0.026 | 0.83 ± 0.068 | 0.617 ± 0.11 | 0.348 ± 0.083 | 0.16 ± 0.064 | 0.384 | 0.357 | 0.28 | 0.186 | 0.0588 | 0.00966
MDAMB231 | 1.11 | 1.1 | 1.06 | 1.04 | 0.995 | 0.84 | – | – | – | – | – | –
MDAMB435 | 0.989 | 1.03 | 1.02 | 0.924 | 0.721 | 0.207 | – | – | – | – | – | –
MDAMB436 | 1.04 | 0.987 | 0.992 | 0.795 | 0.541 | 0.188 | – | – | – | – | – | –
MDAMB468 | 1.04 | 0.969 | 0.942 | 0.794 | 0.556 | 0.222 | – | – | – | – | – | –
MHHES1 | 0.994 | 0.99 | 0.974 | 0.915 | 0.776 | 0.458 | – | – | – | – | – | –
MIAPACA2 | 1.05 ± 0.024 | 1.07 ± 0.072 | 1.01 ± 0.022 | 0.991 ± 0.07 | 0.891 ± 0.18 | 0.611 ± 0.18 | 0.592 | 0.546 | 0.286 | 0.086 | 0.0368 | 0.0246
MINO | 0.833 | 0.904 | 0.937 | 0.73 | 0.326 | 0.0668 | – | – | – | – | – | –
MT3 | 0.994 | 0.98 | 0.951 | 0.828 | 0.415 | 0.0961 | – | – | – | – | – | –
MV411 | 0.937 | 0.935 | 0.924 | 0.793 | 0.383 | 0.0939 | – | – | – | – | – | –
NCIH82 | 0.982 ± 0.048 | 1.016 ± 0.0085 | 0.988 ± 0.034 | 0.892 ± 0.15 | 0.718 ± 0.24 | 0.422 ± 0.055 | 0.219 | 0.187 | 0.11 | 0.0372 | 0.0097 | 0.000329
NCIH292 | 0.959 ± 0.031 | 1.017 ± 0.0086 | 0.924 ± 0.039 | 0.684 ± 0.078 | 0.33 ± 0.064 | 0.00769 ± 0.042 | 0.526 | 0.511 | 0.357 | 0.21 | 0.0579 | -0.0162
